According to US10822317B2, “Methods and compositions for wound healing” (QBiotics Limited, priority 2013, dated 2020):

Key:
[1] = test system: TGF-β1-stimulated dermal fibroblasts; assay: Differentiation of adult dermal fibroblasts into myofibroblasts (α-SMA expression); format: cell-based, human
Description: The effects of Compounds […] and 37 on dermal fibroblast differentiation to myofibroblasts was examined by the extent of α-SMA expression by TGF-βi-stimulated dermal fibroblasts.
Following trypsinization, fibroblasts were seeded in 8-well, Permanoxchamber slides (VWR International) in DMEM medium, containing antibiotics, 2 mM L-glutamine and 10% foetal calf serum (250 μL, all purchased from Invitrogen); at a cell density of 2.5×10^4 cells/well and maintained at 37° C. in 5% CO2/95% air for 48 h.
At 48 hr, fibroblasts were growth-arrested in serum-free DMEM for 48 hr and then replaced with serum-free DMEM (250 μL), containing Compounds 1 or 37 at concentrations of 0, 0.001, 0.01, 0.1, 1.0 and 10.0 μg/mL (3 wells/concentration/compound) and TGF-β1 (10 ng/ml, Peprotech). Fibroblasts were maintained at 37° C. in 5% CO2/95% air for 72 hr.
At 72 hr, chamber slide wells were washed with PBS (×1, 250 μL) and fixed in 4% paraformaldehyde (100 μL/well) for 10 min. The chamber slide wells were then washed again with PBS (×1, 250 μl), treated with 0.1% Triton X-100 in PBS (100 μL, Sigma) for 5 min and re-washed with PBS (×1, 250 μL). Wells were blocked with 1% BSA in PBS (250 μL, Sigma) for 1 h and washed (×3) in 0.1% BSA/PBS.
Wells were incubated with monoclonal mouse anti-human α-SMA, clone 1A4 (1:100, 150 ul, Sigma) at 4° C. overnight, washed (×6) in 0.1% BSA/PBS and incubated with Alexa Fluor 488 goat anti-mouse IgG antibody (1:1000, 250 μL, Invitrogen), at room temperature for 1 h, under darkness. Chamber slides were washed (×6) in 0.1% BSA/PBS and counterstained with Hoescht 33258 solution for 30 min under darkness (1:2000, 250 μL, Sigma). Chamber were subsequently removed for slides and treated with Fluorsave (Santa Cruz) for 10 min under darkness. Slides were viewed by fluorescence microscopy (Leica Microsystem), with digital images being capturedat ×200 magnification. Digital images were processed using HC Image J Software.

[2] = test system: chronic, non-healing wounds; assay: Veterinary clinical treatment of non-healing and difficult wounds, 10 pet animals (overall); format: in vivo, dogs, tree kangaroos, spectacled flying fox; conditions: eight completed cases; open wounds, no dressings
Description: Compound 1 has been used to treat to heal difficult wounds in 10 pet (i.e. privately owned and cared for) animals with the aim of improving second intention wound healing
(§1) Seven dogs (Canis lupus familiaris) and one tree kangaroo (Dendrolagus humholzii) with chronic, non-healing wounds that were unresponsive to current veterinary standards-of-care for these indications were treated with Compound 1 by independent veterinarians. A second tree kangaroo and a spectacled flying fox (Pteropus conspicillatus) with wounds unsuited for initial treatment with current standards-of-care were also treated with Compound 1. All cases were managed as open wounds without the use of dressings or other bandaging during the course of treatment with Compound 1 and the subsequent period of wound resolution. Unless stated in individual case studies, no concomitant medications were used over the course of treatments with Compound 1.
Case and treatment notes for each of these patients are summarised below. Note that the return presentation of these animals to the treating veterinarians was often irregular and wound healing outcomes may have occurred well before the return assessment visits.

[3] = test system: chronic, non-healing wounds; assay: Veterinary case studies 1 to 7, non-healing wounds in dogs; format: in vivo, Canis lupus familiaris
Description: as §1
Case notes: • Frail patient with severe osteoarthritis, considered a high anaesthetic risk for any surgical intervention. • Patient had persistent infected cyst on the back proximal to the tail that had not responded to regular draining and injection of the cyst with antibiotics (gentamycin, enrofloxacin, norocillin) over a 5 month period. • Patient presented with the burst cyst and elevated temperature. The cyst was cleaned to remove dead skin and then flushed with saline and chlorhexidene.
The wound area was fully healed by 63 days after treatment. • The wound on leg also responded quickly with eschar present in localised areas. By 14 days the eschar had largely shed and healthy underlying granulation tissue was observed.
Case notes: • Patient presented with a non-healing laceration due to a hunting accident that had been present on the left ear for more than 6 weeks. • Three treatments, each of 0.1 mL of 5 mg/mL gel formulation of Compound 1, were applied to the affected area at 8 day intervals. No concomitant medications were used during the course of treatment of the patient with Compound 1. • By 41 days after the first treatment with Compound 1 the wound had fully closed.
Case notes: • The patient presented with non-healing (infected and inflamed) sore on upper part of left ear and was treated for 10 weeks with standard-of-care protocols involving regular application of (i) a topical dermatological formulation (Neotopic) combining antibacterial (neomycin sulphate), anti-inflammatory (hydrocortisone) and anti-pruritic (lignocaine) agents, and (b) a commercial suspension (Auracol) with anti-inflammatory (prednisolone), antifungal (miconazole nitrate) and antibacterial (polymixin B sulphate) components. Prior to these treatments the patient was on an on-going course of low dose oral corticosteroids (macrolone) for treatment of chronic canine atopic dermatitis syndrome. • After 10 weeks of the standard-of-care protocol there was no sign of wound resolution. • A single treatment of 3 mL of a 5 mg/mL gel formulation of Compound 1 was applied to the affected area and within 15 minutes of application of Compound 1 there was discernable reddening of the treated area. • From 4 days after treatment with Compound 1 the patient recommenced low dose daily corticosteroids (macrolone) for treatment of the severe atopic dermatitis.
Case notes: • The patient presented with two non-healing wounds at the tip and base of the right ear and a non-healing wound on the snout that owner had observed present for more than 4 weeks. Possible origin was infected spider or other insect bites. • Two treatments, each of 0.1 mL of 5 mg/mL gel formulation of Compound 1, were applied to both affected areas on the ears at a 5 day interval.

[4] = Case 1, 76 days following the final treatment
[5] = Case 5, 152 days after the initial treatment
[6] = Case 6, 83 days after treatment

Compound: CC=C(C)C(=O)OC1C(C)C2(O)C(C3OC3(CO)C(O)C3(O)C(=O)C(C)=CC32)C2C(C)(C)C12OC(=O)C(C)CC (stereo not drawn) [Compound 1, 12-tigloyl-13-(2-methylbutanoyl)-6,7-epoxy-4,5,9,12,13,20-hexahydroxy-1-tigliaen-3-one]
- differentiation of TGF-β1-treated adult dermal fibroblasts into myofibroblasts ([1]; 0.001 to 10.0 μg/mL, 72 hr): affected differentiation into myofibroblasts in a concentration-dependent manner
- α-SMA stress fibre formation and polygonal cellular morphology (myofibroblast differentiation) ([1]; TGF-β1 10 ng/ml, 72 hr, 0.1 μg/mL): lacked the α-SMA stress fibre formation and the typical polygonal cellular morphology
- myofibroblast morphology ([1]; between 1 and 10 μg/mL): subtle alterations in myofibroblast morphology
- wound resolution [2]: effective wound resolution with minimal scarring
- wound status ([3]; Case 1, Bernese Mountain Dog, facial wound, gel 3 mg/mL x5, then 1 mL 0.5 mg/mL injected, 35 days following injection): infilled with healthy differentiating granulation tissue
- hair regrowth, % of the original wound area [3, 4]: greater than 95%
- wound outcome [3, 4]: healed and was infilled with normal tissue minimal scarring
- wound area as % of the area of the original wound ([3]; Case 2, Boxer, burst infected cyst, 0.5 mL gel 3 mg/mL, 5 days post treatment): less than 30%
- hair regrowth over the original wound area ([3]; Case 2, 30 days): greater than 70%
- wound outcome ([3]; Case 2, 30 days): resolved with normal tissue
- wound size as % of original size ([3]; Case 3, Chow Chow, two bite wounds, 0.4 mL gel 3 mg/mL each, 15 days post treatment): less than 40%
- wound outcome ([3]; Case 3, 46 days following treatment): completely resolved with normal tissue, no scarring and complete hair regrowth
- time to complete wound closure, facial wound ([3]; Case 4, Boxer, single 0.4 mL gel 5 mg/mL): ≤ 14 days
- hair cover, leg wound ([3]; Case 4, 63 days after treatment): greater than 95%
- time to fully healed wound area, facial wound ([3]; Case 4, single 0.4 mL gel 5 mg/mL): ≤ 63 days
- wound outcome, leg wound ([3]; Case 4, single 0.6 mL gel 5 mg/mL, 63 days after treatment): completely closed
- time to full wound closure ([3]; Case 5, Bull Arab, ear laceration, 3 x 0.1 mL gel 5 mg/mL at 8 day intervals, after first treatment): ≤ 41 days
- hair coverage over the original wound site [3, 5]: greater than 80%
- wound outcome [3, 5]: complete wound resolution, minimal scarring
- time to discernable reddening of the treated area ([3]; Case 6, Boxer, ear wound, single 3 mL gel 5 mg/mL): ≤ 15 min
- wound status ([3]; Case 6, 17 days after treatment): no sign of infection or inflammation
- hair regrowth, % of the original wound area [3, 6]: more than 90%
- wound outcome [3, 6]: complete wound closure
- scarring ([3]; Case 6, 139 days after treatment): no evidence of scarring
- wound status, ear wounds ([3]; Case 7, Jack Russell Terrier, 2 x 0.1 mL gel 5 mg/mL, 13 days after the first treatment): contracted significantly and had formed eschars
- time to full wound closure, ear wounds ([3]; Case 7, 2 x 0.1 mL gel 5 mg/mL): ≤ 29 days
- wound outcome, snout wound ([3]; Case 7, single 0.1 mL gel 5 mg/mL, 16 days after treatment): fully resolved
